Experimental data published in ChEMBL document CHEMBL4028866 (J Med Chem, 2017).

Assays:
in vivo [1] = details: Sprague-Dawley, rat, po, 10 mg/mg
in vivo [2] = details: Sprague-Dawley, rat, iv, 1 mg/mg
in vivo [3] = details: Sprague-Dawley, rat, po, 10 mg/mg; remark: listed apart in the source
in vivo [4] = details: Sprague-Dawley, rat, iv, 1 mg/mg; remark: listed apart in the source
in vivo [5] = details: Sprague-Dawley, rat, po, 10 mg/mg; remark: listed apart in the source
in vivo [6] = details: Sprague-Dawley, rat, po, 10 mg/mg; remark: listed apart in the source
in vivo [7] = details: Sprague-Dawley, rat, iv, 1 mg/mg; remark: listed apart in the source
in vivo [8] = details: Sprague-Dawley, rat, iv, 1 mg/mg; remark: listed apart in the source
in vivo [9] = details: Sprague-Dawley, rat, po, 10 mg/mg; remark: listed apart in the source
in vivo [10] = details: Sprague-Dawley, rat, po, 10 mg/mg; remark: listed apart in the source
Rattus norvegicus = species: Rattus norvegicus; details: in vivo, po
in vivo [11] = details: Sprague-Dawley, rat, iv, 1 mg/mg; remark: listed apart in the source
in vivo [12] = details: Sprague-Dawley, rat, po, 10 mg/mg; remark: listed apart in the source
in vivo [13] = details: Sprague-Dawley, rat, iv, 1 mg/mg; remark: listed apart in the source
in vivo [14] = details: Sprague-Dawley, rat, iv, 1 mg/mg; remark: listed apart in the source
in vivo [15] = details: Sprague-Dawley, rat, po, 10 mg/mg; remark: listed apart in the source
in vivo [16] = details: Sprague-Dawley, rat, iv, 1 mg/mg; remark: listed apart in the source

Row | AUC(0-t) (in vivo [1]) [µg·h/mL] | AUC(0-t) (in vivo [2]) [µg·h/mL] | Cmax (in vivo [3]) [µg/mL] | half-life (in vivo [4]) [h] | CL/F (in vivo [5]) [L/h/kg] | AUC(0-inf) (in vivo [6]) [µg·h/mL] | Cmax (in vivo [7]) [µg/mL] | MRT inf (in vivo [8]) [h] | bioavailability (in vivo [9]) [%] | Tmax (in vivo [10]) [h] | Vz (Rattus norvegicus) [L/kg] | Vd (in vivo [11]) [L/kg] | half-life (in vivo [12]) [h] | AUC(0-inf) (in vivo [13]) [µg·h/mL] | Tmax (in vivo [14]) [min] | MRT inf (in vivo [15]) [h] | clearance (in vivo [16]) [L/h/kg] | SMILES
1 | 14.5 | 1.93 | 1.14 | 4.38 | 0.756 | 15 | 0.728 | 5.83 | 75.9 | 8 | 4.078 | 3.53 | 3.73 | 1.97 | 1.8 | 10.1 | 0.561 | CC(C)(C)c1cc(NC(=O)Nc2ccc(-c3cn4c(n3)sc3cc(OCCN5CCOCC5)ccc34)cc2)no1 [QUIZARTINIB]
2 | 0.978 | 0.52 | 0.0835 | 3.34 | 0.0116 | 0.991 | 0.839 | 3.13 | 18.8 | 6.66 | 0.06082 | – | 3.61 | 0.525 | 1.02 | 7.22 | 0.00207 | CC(C)(C)c1cc(NC(=O)Nc2ccc(-n3nc(-c4ccc(OCCN5CCOCC5)cc4)c4c(N)ncnc43)cc2)no1
